A short description of data set [1]: Log P determination (n-octanol/water, FAAS). To be noted: n-octanol/water, gold by FAAS; for logP: Log P. Here is the method: Log P Determination: Calibration curves. Milli-Q Water (150 mL) was added to n-octanol (150 mL), and the mixture was stirred for 3 days to allow both phases to reach saturation. The gold standard solution (1000 ppm Au in hydrochloric acid, Fisher Scientific) was diluted to 1, 2, 3, 4 and 5 ppm with n-octanol-saturated water, and the absorbance of the resulting solutions was measured by flame atomic absorption spectroscopy (FAAS, Agilent Technology 200 Series AA, equipped with a gold HC Lamp-Au coded). The absorbance data were plotted against Au concentration, and the resulting calibration curve was used for determining the concentration of the analogs in the aqueous phase.
To construct the standard calibration curve of the Au concentration in the n-octanol phase, compound 27 was used. The Au concentration in compound 27 was first calibrated against the aqueous gold standard. For this, 0.440 mg of compound 27 was weighed on a Sartorius MC5 microbalance, and then added to 22 mL of n-octanol-saturated water. […] For this, solutions of varying concentrations (0.99, 2.47, 4.94, 5.93, 9.88 ppm) of compound 27 in water-saturated n-octanol were prepared. The absorbance was measured by FAAS, and the data were plotted against the Au concentration to provide a second calibration curve, which was used for determining the Au concentration of the analogs in the n-octanol phase.
Determination of Au concentrations: Method 1. 0.5 to 1 mg of compound was weighed into a 2-mL Eppendorf tube containing 2 mL of n-octanol-saturated water. After shaking for about 4 h, the solution was centrifuged at 6000 rpm for 3 min. 1 mL of the supernatant was transferred to a new tube containing 1 mL of water-saturated n-octanol, and the mixture was shaken for 1 h. After centrifugation at 6000 rpm for 5 min, the two layers were collected and the gold concentration in each layer was determined by FAAS by comparing the absorbance to the first and second calibration curves.
Determination of Au concentrations: Method 2. […] For Method 2, 0.6 to 1 mg of compound was weighed into a 2-mL Eppendorf tube containing 1 mL of n-octanol-saturated water and 1 mL of water-saturated n-octanol. After shaking for 3-4 h, the mixture was centrifuged, and all liquid was transferred to a 15-mL tube. The liquid was then diluted with 2 mL of n-octanol-saturated saturated water and 2 mL of water-saturated n-octanol, and the mixture was shaken for another hour. After centrifugation at 6000 rpm for 5 min, the two layers were collected and the gold concentration in each layer was determined by FAAS by comparing the absorbance to the first and second calibration curves.
Log P was calculated as follows: log P=log[compound]oct/[compound]water

The subject of the next data set is A. baumannii NCTC 13420. Kind of data set: Antibacterial assay, MIC/MBC by broth microdilution (CLSI). The class given is cell-based. Particulars: A. baumannii NCTC 13420; repeated twice, a/b = both values. The protocol: (§1) Antibacterial assay. The minimum inhibitory concentrations (MICs) and the minimum bactericidal concentrations (MBCs) were determined by the broth microdilution method as described in the CLSI (The Clinical & Laboratory Standards Institute) guidelines (Performance standards for antimicrobial susceptibility testing: Clinical and Laboratory Standards Institute (CLSI), Twenty-Fifth informational supplement. Document M100-S25: […]; Vol. 35). All bacterial strains were cultured in cation-adjusted Muller Hinton broth (CAMHB) up to log-phase and then diluted to give a concentration of 7.5×10^5 CFU/mL. The gold complexes were dissolved in DMSO or water as stock solutions, which were then serially diluted two-fold in a 96-well plate. Aliquots (100 μL) of the dilutions were mixed with equal volumes of the bacterium suspension in a 96 well plate (in triplicates). The plates were incubated at 37° C. for 18 h without shaking. Negative and positive controls were included in the same well plate with wells having the culture medium only and bacteria solution only, respectively. The sample concentration that gave inhibition values above 90% were determined as MICs as calculated from absorbance values at 600 nm (OD600) obtained using a Tecan SPARK IOM plate reader. To determine minimum bactericidal concentrations (MBCs), agar plates were treated with 5 μL sample solutions from each well, and then incubated at 37° C. for 18 h without shaking. The sample concentration that gave no colony formed on agar plates were determined as MBCs.
(§2) Selection of bacteria. The ESKAPE pathogens were chosen as they are responsible for the majority of nosocomial infections and also as they provide a good scope of strains including both Gram-negative and Gram-positive species. A. baumannii NCTC 13420 was originally identified in 24 hospitals in the UK during 2000-2003, which produced OXA-51-like β-lactamases, and was highly resistant to ampicillin, piperacillin, piperacillin/tazobactam, ceftazidime, cefotaxime, gentamicin and ciprofloxacin. P. aeruginosa NCTC13437 produces VIM-10 metallo-carbapenemase and VEB-1 (Vietnamese extended-spectrum beta-lactamase). Wild-type strain E. cloacae NCTC 13405 (originally named E. cloacae 684) was isolated from patients at the London Hospital during 1982-1983. This strain has inducible AmpC β-lactamase and is resistant to ampicillin/amoxicillin and cefoxitin. K. pneumoniae ATCC 700603 was isolated from the urine of a hospitalized patient in Richmond, Va. in 1994, and it produces SHV-18 extended spectrum beta-lactamase (ESBL). JE2 (USA300) is a methicillin-resistant S. aureus (MRSA) strain, also resistant to beta-lactams, ciprofloxacin, tetracycline, macrolides (erythromycin), lincosamides (clindamycin), streptogramin B, and mupirocin. E. faecium ATCC 700221, a positive fecal VRE (vancomycin-resistant enterococcus) isolate, is resistant to several antibiotics including vancomycin and teicoplanin. The quality control strain, Gram-negative E. coli ATCC 25922, was included in all assays and validated with ciprofloxacin and […].
(In general: Dilution methods test growth across graded concentrations, often in twofold steps.)

The next data set relates to E. coli ATCC 25922. The data set is described as above. Particulars: repeated twice, a/b = both values. Type of data set: cell-based. Here is the method:
as §1, §2

A further data set relates to E. cloacae NCTC 13405. The description is as above. Type of data set: cell-based. To be noted: for activity in words: E. cloacae. Here is the method:
as §1, §2

Another data set concerns S. aureus JE2 (USA300). The data set is described as above. The class given is cell-based. To be noted: for MIC values in words: S. aureus. Here is the method: as §1, §2
Another data set has as its system P. aeruginosa NCTC 13437. The data set is described as above. The class given is cell-based. To be noted: P. aeruginosa. The protocol:
as §1, §2

The test system of data set [2] is K. pneumoniae ATCC 700603. Described as above. Type of data set: cell-based. Particulars: K. pneumoniae ATCC 700603; repeated twice, a/b = both values. The protocol: as §1, §2
For the next data set, the system named is E. faecalis ATCC 700221. The data set is described as above. To be noted: repeated twice, a/b = both values. The class given is cell-based. Here is the method: as §1, §2

Each structure is given as a SMILES string.

Regarding `CC[PH](CC)(CC)[Au][S][C@@H]1OC(COC(C)=O)[C@@H](OC(C)=O)[C@H](OC(C)=O)C1NC(C)=O` (stereo partly drawn) [Compound 3, (3,4,6-Tri-O-acetyl-2-N-acetyl-1-thio-β-D-glucopyranosato) (triethylphosphine) gold (1)], in data set [1], the logP (commonly a log measure of how a compound divides between an organic and an aqueous phase) was found to be 0.26.
For the compound `CC[P+](CC)(CC)[Au-][S]c1ccc(SCC(=O)NC2[C@H](OC(C)=O)OC(COC(C)=O)[C@@H](OC(C)=O)[C@@H]2OC(C)=O)cc1` (stereo partly shown) [Compound 8], the MIC in the data set with A. baumannii NCTC 13420 is recorded as 76/19. For the same compound, the logP in data set [1] is -0.36.
As to `CC[P+](CC)(CC)[Au-][S][C@@H]1OC(CO)[C@@H](O)[C@H](O)C1NC(C)=O` (stereo partly drawn) [Compound 12, (2-Acetamido-2-deoxy-1-thio-β-D-glucopyranosato)(triethylphosphine) gold(I)], the MIC with E. coli ATCC 25922 is recorded as 7/4. For the same compound, in data set [1], the logP is -0.89.
In the case of `CC[P+](CC)(CC)[Au-][S]c1ccc([N+](=O)[O-])cc1` [Compound 22, (4-Nitrobenzenethiolato)(triethylphosphine) gold(I)], the activity in words entry in the data set with E. cloacae NCTC 13405 is listed as “completely diminished the activity”. The “MIC values in words” value in the data set on S. aureus JE2 (USA300) is on record as “nanomolar range”. Moreover, in data set [1], the logP is greater than 3; the Log P (in general, a log measure of how a compound divides between an organic and an aqueous phase) is listed as greater than 3.28.
As to `CC[P+](CC)(CC)[Au-][S]c1ccc(C(F)(F)F)cc1` [Compound 23, (4-(Trifluromethyl)benzenethiolato)(triethylphosphine) gold(I)], in the data set on E. cloacae NCTC 13405, the activity in words entry is reported as “completely diminished the activity”. For the same compound, in data set [1], the logP was greater than 3 and the “Log P” value is reported as greater than 3.18.
In the case of `CC[P+](CC)(CC)[Au-][S]CCO` [Compound 24, (2-Mercaptoethanolato)(triethylphosphine) gold(I)], the MIC against E. cloacae NCTC 13405 (E. cloacae NCTC 13405, repeated twice, a/b = both values) is 5/10. In addition, the activity in words entry with P. aeruginosa NCTC 13437 is listed as “showed activity”. This compound came in with a logP in data set [1] of 1.19.
On to `CC[P+](CC)(CC)[Au-][S]CC(=O)OC` [Compound 25, (Methyl mercaptoacetatato) (triethylphosphine) gold(I)], for which the “MIC values in words” value against S. aureus JE2 (USA300) is “nanomolar range”. Further, in data set [1], the logP turned out to be 1.75.
Regarding `CC[P+](CC)(CC)[Au-][S]CC(F)(F)F` [Compound 26, (2,2,2-Trifluoroethanethiolato)(triethylphosphine) gold(I)], in the data set with S. aureus JE2 (USA300), the “MIC values in words” value is “nanomolar range”. In data set [1], the logP came out at 2.08.
Turning to `C[P+](C)(C)[Au-][Cl]` [Compound 28, (Trimethylphosphine) gold chloride], the MIC (in data set [2]; against A. baumannii NCTC 13420) was 7/13 in each case. Further, the activity in words result in the data set with P. aeruginosa NCTC 13437 is listed as “showed activity”. Further, the logP in data set [1] was 0.16.
With `Fc1ccc([P+]([Au-][Cl])(c2ccc(F)cc2)c2ccc(F)cc2)cc1` [Compound 33, (Tris(4-fluorphenyl)phosphine) gold chloride], in the data set with E. faecalis ATCC 700221, the MIC was 2/4. In data set [1], this compound gave a logP greater than 4.04.
In the case of `CC(=O)OCC1O[C@@H]([S][Au-][P+](C)(C)C)C(OC(C)=O)[C@@H](OC(C)=O)[C@@H]1OC(C)=O` (stereo partly drawn) [Compound 35, (2,3,4,6-Tetra-O-acetyl-1-thio-β-D-glucopyranosato)(trimethylphosphine) gold(I)], the MIC against A. baumannii NCTC 13420 is recorded as 6/13. For the same compound, the activity in words result in the data set with P. aeruginosa NCTC 13437 was “four-fold improvement in activity over 15”. In addition, in data set [1], the logP is 0.35.
On to `CC(=O)OCC1O[C@@H]([S][Au-][P+](c2ccccc2)(c2ccccc2)c2ccccc2)C(OC(C)=O)[C@@H](OC(C)=O)[C@@H]1OC(C)=O` (stereo partly drawn) [Compound 37, (2,3,4,6-Tetra-O-acetyl-1-thio-β-D-glucopyranosato)(triphenylphosphine) gold(I)], for which, in the data set on S. aureus JE2 (USA300) (S. aureus JE2 (USA300), repeated twice, a/b = both values), the MIC is 1/2. Also, the logP in data set [1] is greater than 3.87.
For `CC(=O)OCC1O[C@@H]([S][Au-][P+](c2ccc(C(F)(F)F)cc2)(c2ccc(C(F)(F)F)cc2)c2ccc(C(F)(F)F)cc2)C(OC(C)=O)[C@@H](OC(C)=O)[C@@H]1OC(C)=O` (stereo partly drawn) [Compound 40, (2,3,4,6-Tetra-O-acetyl-1-thio-β-D-glucopyranosato)(tris(4-(trifluoromethyl)phenylphosphine)) gold(I)], in data set [1], the logP is greater than 3.55.
